US20100016441A1, “BIOCIDAL COMPOSITION AND METHOD” (priority 2008, published 2010)

Legend:
[1] = tested on: pool of microorganisms; assay: Rapid decontamination and long term preservation challenge test in UCAR Latex 626 (pH 8.7); format: cell-based; details: for active concentration, used alone, achieving 4 log10 reduction in bacterial concentration: UCAR Latex 626, pH 8.7, 1 h after initial inoculum; for concentration, used alone, achieving decontamination: 24 h after second inoculation at seven days
Protocol: (§1) The antimicrobial profiles of DBNPA, BNPD, and a combination of DBNPA-BNPD (3:1 w/w) are tested in a commercial water-based latex (UCAR Latex 626 available from The Dow Chemical Company), and a generic mineral slurry sample. Commercial latexes vary in pH values from slightly acidic to basic. For the purpose of this study, a latex with a basic pH (8.7) is selected, as it is known that both BNPD and DBNPA have limited chemical stability at alkaline pH. Mineral slurries vary in pH, but most often they are alkaline. For the purpose of this study, a titanium dioxide slurry with pH of 8.35 was selected.
(§2) Both the latex and the mineral slurry are free of contamination prior to testing. At time zero, the test matrices are inoculated with a pool of microorganisms (listed below) to a final concentration of 5×10^6 CFU/ml. Aliquots of the contaminated samples are weighed into a series of sterile containers followed by addition of the appropriate volume of biocide required to achieve the desired concentration. A control sample, lacking biocide, is included in each evaluation. Following biocide addition, samples are thoroughly mixed and aliquots are removed and streaked to tryptic soy agar plates, at various time points, for the enumeration of surviving microorganisms. All agar plates are incubated at 30° C. for 72 hours prior to assessment of viable bacteria. In all the ensuing results, a minimum of 4 log10 reduction in microorganism concentration, as compared to the control sample, is considered significant efficacy.
(§3) Microorganisms: Twenty-four hour tryptic soy broth cultures are combined in equal parts for formulation inoculation at a final concentration of 5×10^6 CFU/ml. Organisms utilized: Pseudomonas aeruginosa (ATCC#15442), Pseudomonas aeruginosa (ATCC#10145), Staphylococcus aureus (ATCC#6538), Burkholderia cepacia (ATCC#25416), Pseudomonas fluorescens B (environmental isolate), Pseudomonas oleovorans (environmental isolate), Enterococcus sulfureus (environmental isolate). To assess the rapid decontamination efficacy of the biocides, aliquots are removed at 60 minutes following the initial inoculation, and streaked on tryptic soy agar plates for the enumeration of surviving microorganisms. The samples are stored at ambient conditions for three or seven days, respectively, at which point a second inoculation is administered, to test the long term preservation efficacy of the biocides. Aliquots are removed at 4 h and/or 24 h or 48 h following the second inoculation, and streaked on tryptic soy agar plates, for the enumeration of surviving microorganisms.
(§4) Synergy: The synergy indexes reported here are measured and calculated using Formula 1. In this approach, a synergy index (SI) of 1 indicates additivity. If the synergy index is less than 1, synergy has occurred, while a synergy index greater than 1 indicates antagonism.
(§5) Synergy Index=CA/Ca+CB/Cb (1)
Ca=concentration of antimicrobial A, alone, producing a predetermined end-point
Cb=concentration of antimicrobial B, alone, producing a predetermined end-point
CA and CB=the concentrations of antimicrobials A and B, respectively, together in a mixture, that produce a predetermined end-point

[2] = tested on: pool of microorganisms; assay: Rapid decontamination and long term preservation challenge test in titanium dioxide mineral slurry (pH 8.35); format: cell-based; details: for concentration, used alone, obtaining 4 log10 reduction in microorganisms: 48 hours after second inoculation at seven days; for effective concentration, used alone (4 log10 reduction): pH 8.35, 30 min after initial inoculation
Protocol: as §1, §2
as §3, with “To assess the rapid decontamination efficacy of the biocides, aliquots are removed at 60 minutes following the initial inoculation, and streaked on tryptic soy agar plates for the enumeration of surviving microorganisms.” left out
as §4, §5
Ca=concentration of antimicrobial A, alone, producing a predetermined end-point […]

[3] = going from pH 6 to pH 8.9; cited from earlier work

| Compound | active concentration, used alone, achieving 4 log10 reduction in bacterial concentration [1] | concentration, used alone, achieving decontamination ([1]; UCAR Latex 626) | effective active concentration (4 log10 reduction) ([1]; UCAR Latex 626, 24 h after second inoculation at three days) | concentration, used alone, obtaining 4 log10 reduction in microorganisms [2] | effective concentration, used alone (4 log10 reduction) [2] | factor of increase of rate of disappearance [3] |
| --- | --- | --- | --- | --- | --- | --- |
| O=[N+]([O-])C(Br)(CO)CO [BNPD, 2-bromo-2-nitro-1,3-propanediol] | > 600 ppm | 95.7 ppm | 95.7 ppm | 35.1 ppm | > 600 ppm | – |
| N#CC(Br)(Br)C(N)=O [DBNPA, 2,2-dibromo-3-nitrilopropionamide] | 140 ppm | did not achieve decontamination | – | 400 ppm | 23.4 ppm | about 450 |
